Experimental data reported in patent publication US4820712A, “Sparsomycin (SC-RS) compounds having antitumor activity, a process for their preparation and pharmaceutical compositions containing sparsomycin (SC-RS) compounds” (priority 1986, dated 1989).
Like-named read-outs stand apart in the source and are kept apart here.

Assays:
acute toxicity LD50 = format: in vivo, mice; details: for LD50: mouse, in vivo, ip, daily x9 injections, mice, 95% confidence interval given, read-out: LD 50 in mg/kg/inj i.p. in mice
Description: It appears therefrom that ala-sparsomycin is about 9× less toxic than sparsomycin.

[1] = biological target: ribosomes from S. cerevisiae Y166 (peptidyl transferase activity); experiment: polyphenylalanine synthesis assay, S. cerevisiae ribosomes; format: biochemical; details: concentration giving 50% inhibition relative to control; 30° C., 30 min; read-out: ED50 polyPhe synthesis S. cerevisiae
Protocol: (§1) The peptidyl transferase activity was measured by the polyphenylalanine synthesis assay (Nirenberg and Matthei, Proc. Natl. Acad. Sci. USA 47 (1961) 1588), the fragment reaction (Monro, Methods Enzymol. 20 (1971) 472) and the puromycin reaction. In all the in vitro tests, i.e. polyPhe synthesis, fragment reaction and puromycin reaction, ribosomes from E. coli MRE600 and S. cerevisiae Y166 were used. The reaction mixture for polyphenylalanine synthesis was slightly different for E. coli and S. cerevisiae.
S. cerevisiae: The test was carried out as indicated above for E. coli. The phosphoenol pyruvate and pyruvate kinase were, however, replaced by creatine phosphate (20 mM) and creatine phosphokinase (50 μg/ml). The incubation was performed at 30° C. for 30 min and the samples were processed as described above. Under these conditions the control samples polymerized 5-14 and 3-8 molecules of phenylalanine per ribosome derived from E. coli and S. cerevisiae, respectively. Ribosomes and supernatant factors from E. coli and S. cerevisiae were prepared according to standard procedures, described by Staehelin and Maglott, Methods Enzymol. 20 (1971) 449, and by Sanchez-Madrid et al, Eur. J. Biochem. 98 (1979) 409.
(§2) The concentration of sparsomycin or an analog giving 50% inhibition of the protein synthesis relative to the control is given in ED50.

Leukemia L 1210 cells = experiment: in vitro clonogenic L1210 assay (inhibition of colony formation in soft agar); format: cell-based; details: Mus musculus, L1210, 72 h, read-out: ID50 (dose giving 50% inhibition of L1210 colony formation)
Protocol: The in vitro clonogenic assay was effected in Leukemia L 1210 cells in soft agar medium (0.3%). […] In the analysis, the inhibition of the L 1210 colony formation by sparsomycin and derivatives thereof is determined for various concentrations, and the dose giving 50% inhibition of the colony formation, as compared with non-treated control cells is calculated (ID50).
From a suspension culture one hundred L 1210 cells are plated out in 35 mm culture dishes (Falcon) containing 1 ml soft agar culture medium and the compound to be investigated in suitable concentrations. The soft agar culture medium consists of Dulbecco's medium supplemented with 20% horse serum, 60 μmole 2-mercaptoethanol, 20 mg/ml L-asparagine, 75 mg/ml DEAE dextran (molecular weight 2×10^6) and 0.3% bacto agar (Difco). The culture dishes were incubated at 37° C. in an atmosphere of 10% CO2 in humidified air for 3 days. After this period of continuous exposure to the medicament the colonies were counted and dose-effect curves made. From these curves, the medicament dose is calculated which causes 50% inhibition of the colony formation as compared with non-treated control cells.

E. coli MRE600 = experiment: inhibition of bacterial growth; format: cell-based
Protocol: Inhibition of bacterial growth was tested in solid as well as in liquid medium. For the test on agar plates, petri dishes containing 15 ml of LB medium (10 g/l bactotryptone, 5 g/l yeast extract and 5 g/l NaCl) were covered with 5 ml of the same medium--kept melted at 40° C.--containing 40 μl of a culture of the required bacterium at approximately an A550 of 2. After solidification, 3 mm filter disks containing 4 μl of a 10 mM solution of the antibiotic in 50EtOH/DMSO were placed on the surface of the agar and the plates were incubated at 37° C. for 24 h. For the test in liquid medium, E. coli MRE600 was grown in LB medium supplemented with 0.2% of glucose to exponential phase (A560 =0.1) and distributed in 1 ml aliquots in tubes containing the required amount of antibiotic. The tubes were incubated at 37° C. for 4 h, subsequently diluted with 3 ml of 0.1% of sodium azide to stop growth and the absorption at 550 nm was measured. The absorption of the medium without addition of antibiotic was considered as 100% growth.

[2] = tested on: ribosomes from E. coli MRE600 (peptidyl transferase activity); experiment: puromycin reaction, E. coli ribosomes; format: biochemical; details: 50% inhibition relative to control; read-out: ED50 Puromycin reaction E. coli
Protocol: as §1
The puromycin reaction was carried out in 25 μl of 30 mM KCl, 50 mM NH4 Cl, 30 mM Tris-HCl pH 7.8, 20 mM MgCl2, 10 pmol of ribosomes, 100 μg/ml of poly(U) and 15 pmol of N-acetyl-[^3 H]Phe-tRNA. The reaction mixture was incubated for 30 min at 37° C. and then 1 μl of 20 mM puromycin was added and incubation was followed for 5 more min. To the samples 250 μl of 0.1M sodium carbonate and 0.7 ml of ethyl acetate were added, shaken for 1 min, centrifuged to separate the phases and 0.5 ml of the upper organic phase taken for estimating the radioactivity.
as §2

[3] = biological target: ribosomes from S. cerevisiae Y166 (peptidyl transferase activity); experiment: fragment reaction, S. cerevisiae ribosomes; format: biochemical; details: 50% inhibition relative to control; 0° C., 30 min, 33% methanol; read-out: ED50 Fragment reaction S. cerevisiae
Protocol: as §1
(§3) The fragment reaction was carried out in 150 μl of 33 mM Tris-HCl pH 7.4, 270 mM KCl, 13 mM magnesium acetate containing 1 mg/ml of ribosomes, 2 mM puromycin, 1 pmol of N-acetyl-[^3 H]Leu-ACCAC(U), the required concentration of sparsomycin or its analogue and 33% methanol. The reaction was initiated by the addition of the alcohol and allowed to proceed at 0° C. for 30 min, and was then stopped by the addition of 100 μl of 0.3M sodium acetate pH 5.5 saturated with MgSO4. The samples were extracted with 1.5 ml of ethyl acetate and 1 ml of the organic phase was checked for radioactivity. The 3' terminal pentanucleotide N-acetyl-[^3 H]Leu-ACCAC(U) was prepared from N-acetyl-[^3 H]Leu-tRNA by ribonuclease T1 as described by Monro.
as §2

[4] = tested on: RC (renal cell) carcinoma; experiment: in vivo antitumor assay, RC (renal cell) carcinoma; set-up: species or system CDF1 mice
Protocol: The antitumor activity of the present compounds has also been investigated by in vivo assays. In the assays, mice were treated for nine days in succession, starting at 24 hours after the time of tumor implant.
The results are shown in tables 4, 5 and 6 and represent the number of tumor-bearing mice surviving after administration of optimal doses of the test compound, expressed as a treatment/control (T/C×100%) ratio. In the tables, information is provided with respect to the sex, dose, weight loss of treated animals compared to control animals, and the number of survivors in groups of 6 mice.

[5] = tested on: ribosomes from E. coli MRE600 (peptidyl transferase activity); experiment: fragment reaction, E. coli ribosomes; format: biochemical; details: 50% inhibition relative to control; 0° C., 30 min, 33% methanol; read-out: ED50 Fragment reaction E. coli
Protocol: as §1, §3, §2

[6] = male mice, ip daily x9, optimal dose mg/kg: sparsomycin 0.125, n-octyl 20.0, benzyl 2.7, 2a 1.1
[7] = male mice, ip daily x9, dose mg/kg: sparsomycin 0.125, n-octyl 20.0, benzyl 2.7, 2a 1.1
[8] = female mice, ip daily x9, dose mg/kg: 2a 2.3

| SMILES | LD50 (acute toxicity LD50) [mg/kg] | IC50 [1] [µM] | IC50 (Leukemia L 1210 cells; soft agar 0.3%, 3 days continuous exposure, vs non-treated control cells) [µM] | IC50 (E. coli MRE600; Escherichia coli, MRE600, 4 h; read-out: Growth inhibition E. coli MRE600 ED50) [µM] | IC50 [2] [µM] | IC50 [3] [µM] | T/C (survival, treatment/control x 100%) [4, 6] [%] | cures (survivors in groups of 6 mice) [4, 7] | weight loss (T - C) ([4]; mouse, in vivo, ip) [g] | IC50 [5] [µM] | times less toxic than sparsomycin (LD50 ratio) (acute toxicity LD50; compared with sparsomycin, LD50 i.p. in mice) | IC50 (Leukemia L 1210 cells) [µM] | IC50 (E. coli MRE600; Escherichia coli, MRE600, 4 h, read-out: Growth inhibition E. coli MRE600 ED50) [µM] | T/C (survival, treatment/control x 100%) ([4]; female mice, ip daily x9, optimal dose mg/kg: 2a 2.3) [%] | cures (survivors in groups of 6 mice) [4, 8] | weight loss (T - C) [4, 8] [g] | weight loss (T - C) [4, 7] [g] |
| --- | --- | --- | --- | --- | --- | --- | --- | --- | --- | --- | --- | --- | --- | --- | --- | --- | --- |
| CSC[S@+]([O-])C[C@H](CO)NC(=O)/C=C/c1c(C)[nH]c(=O)[nH]c1=O [Sparsomycin] | 0.26 | 5.2 | 0.4 | 11 | 0.1 | 2.8 | 100 | 0/6 | -1.7 | 3.2 |  |  |  |  |  |  |  |
| CSC[S@+]([O-])C[C@H](C)NC(=O)/C=C/c1c(C)[nH]c(=O)[nH]c1=O [2a, (Sc Rs)-1-(methylthiomethyl)sulfinyl-2-[β-(6-methyl-5-uracilyl)acrylamido]-propane] | 2.33 | 7.5 |  |  | 0.9 | 5.7 | 304 | 0/6 |  | 4.7 | about 9 × | 0.1 | 5.6 | 300 | 0/6 | -1.5 | -0.6 |
